Measured values as given in PubChem BioAssay (NCI).
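All cell lines were grown in 96-well plates and treated with compound for 48 hours. GI50 = concentration required for 50% inhibition of growth. At the TGI there is no net growth.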

Columns and labels:
Assay in all cases: NCI-60 cell line screen, 48 h
A549 NSCLC = system: A549 NSCLC
SF-295 CNS = system: SF-295 CNS
PC-3 prostate = system: PC-3 prostate
SW-620 colon = system: SW-620 colon
NCI-H522 lung = system: NCI-H522 lung
HOP-62 NSCLC = system: HOP-62 NSCLC
HCT-15 colon = system: HCT-15 colon
DU-145 prostate = system: DU-145 prostate
UACC-62 melanoma = system: UACC-62 melanoma
OVCAR-3 ovarian = system: OVCAR-3 ovarian
OVCAR-5 ovarian = system: OVCAR-5 ovarian
BT-549 breast = system: BT-549 breast
OVCAR-4 ovarian = system: OVCAR-4 ovarian
T-47D breast = system: T-47D breast
HS 578T breast = system: HS 578T breast
RXF 393 renal = system: RXF 393 renal
LOX IMVI melanoma = system: LOX IMVI melanoma
SN12C renal = system: SN12C renal
U251 CNS = system: U251 CNS
HL-60(TB) leukemia = system: HL-60(TB) leukemia
786-0 renal = system: 786-0 renal
RPMI-8226 leukemia = system: RPMI-8226 leukemia
UACC-257 melanoma = system: UACC-257 melanoma
SK-OV-3 ovarian = system: SK-OV-3 ovarian
SF-268 CNS = system: SF-268 CNS
COLO 205 colon = system: COLO 205 colon
IGROV1 ovarian = system: IGROV1 ovarian
CCRF-CEM leukemia = system: CCRF-CEM leukemia
K-562 leukemia = system: K-562 leukemia
CAKI-1 renal = system: CAKI-1 renal
HCC-2998 colon = system: HCC-2998 colon
HT29 colon = system: HT29 colon
ACHN renal = system: ACHN renal
NCI-H226 lung = system: NCI-H226 lung
SR leukemia = system: SR leukemia
EKVX NSCLC = system: EKVX NSCLC
MDA-MB-468 breast = system: MDA-MB-468 breast
A498 renal = system: A498 renal
MDA-MB-435 = system: MDA-MB-435
SK-MEL-5 melanoma = system: SK-MEL-5 melanoma
HOP-92 NSCLC = system: HOP-92 NSCLC
KM12 colon = system: KM12 colon
NCI-H23 lung = system: NCI-H23 lung
OVCAR-8 ovarian = system: OVCAR-8 ovarian
TK-10 renal = system: TK-10 renal
NCI-H460 lung = system: NCI-H460 lung
SK-MEL-28 melanoma = system: SK-MEL-28 melanoma
M14 melanoma = system: M14 melanoma
MOLT-4 leukemia = system: MOLT-4 leukemia
SF-539 CNS = system: SF-539 CNS
MALME-3M melanoma = system: MALME-3M melanoma
UO-31 renal = system: UO-31 renal
SK-MEL-2 melanoma = system: SK-MEL-2 melanoma
MDA-MB-231 breast = system: MDA-MB-231 breast
MCF7 breast = system: MCF7 breast
SNB-19 CNS = system: SNB-19 CNS
HCT-116 colon = system: HCT-116 colon

Cn1cc(-c2cc(N)n3nc(-c4c[nH]c5ccc(F)cc45)cc3n2)c2cc(Br)cnc21
GI50 (A549 NSCLC): 16.4 µM
TGI (A549 NSCLC): > 100 µM
GI50 (SF-295 CNS): 9.9 µM
TGI (SF-295 CNS): 39.1 µM
GI50 (PC-3 prostate): 11.4 µM
TGI (PC-3 prostate): > 100 µM
GI50 (SW-620 colon): 6.93 µM
TGI (SW-620 colon): 21.9 µM
GI50 (NCI-H522 lung): 5.77 µM
TGI (NCI-H522 lung): 40.4 µM
GI50 (HOP-62 NSCLC): 62.2 µM
TGI (HOP-62 NSCLC): > 100 µM
GI50 (HCT-15 colon): 2.55 µM
TGI (HCT-15 colon): 10.7 µM
GI50 (DU-145 prostate): 80.8 µM
TGI (DU-145 prostate): > 100 µM
GI50 (UACC-62 melanoma): 17.7 µM
TGI (UACC-62 melanoma): 72.3 µM
GI50 (OVCAR-3 ovarian): > 100 µM
TGI (OVCAR-3 ovarian): > 100 µM
GI50 (OVCAR-5 ovarian): 21.9 µM
TGI (OVCAR-5 ovarian): > 100 µM
GI50 (BT-549 breast): > 100 µM
TGI (BT-549 breast): > 100 µM
GI50 (OVCAR-4 ovarian): 22.5 µM
TGI (OVCAR-4 ovarian): > 100 µM
GI50 (T-47D breast): 34 µM
TGI (T-47D breast): > 100 µM
GI50 (HS 578T breast): > 100 µM
TGI (HS 578T breast): > 100 µM
GI50 (RXF 393 renal): 2.63 µM
TGI (RXF 393 renal): 8.47 µM
GI50 (LOX IMVI melanoma): 1.96 µM
TGI (LOX IMVI melanoma): 3.69 µM
GI50 (SN12C renal): > 100 µM
TGI (SN12C renal): > 100 µM
GI50 (U251 CNS): 5.72 µM
TGI (U251 CNS): 28.9 µM
GI50 (HL-60(TB) leukemia): 9.35 µM
TGI (HL-60(TB) leukemia): > 100 µM
GI50 (786-0 renal): 8.47 µM
TGI (786-0 renal): 22.2 µM
GI50 (RPMI-8226 leukemia): 5.67 µM
TGI (RPMI-8226 leukemia): 48.5 µM
GI50 (UACC-257 melanoma): 23.3 µM
TGI (UACC-257 melanoma): > 100 µM
GI50 (SK-OV-3 ovarian): > 100 µM
TGI (SK-OV-3 ovarian): > 100 µM
GI50 (SF-268 CNS): > 100 µM
TGI (SF-268 CNS): > 100 µM
GI50 (COLO 205 colon): 55.5 µM
TGI (COLO 205 colon): > 100 µM
GI50 (IGROV1 ovarian): 14.3 µM
TGI (IGROV1 ovarian): > 100 µM
GI50 (CCRF-CEM leukemia): 3.45 µM
TGI (CCRF-CEM leukemia): 20.2 µM
GI50 (K-562 leukemia): 4.09 µM
TGI (K-562 leukemia): 50.2 µM
GI50 (CAKI-1 renal): 6.43 µM
TGI (CAKI-1 renal): > 100 µM
GI50 (HCC-2998 colon): 4.2 µM
TGI (HCC-2998 colon): 20.3 µM
GI50 (HT29 colon): 5.04 µM
TGI (HT29 colon): 24.4 µM
GI50 (ACHN renal): 6.52 µM
TGI (ACHN renal): 43.4 µM
GI50 (NCI-H226 lung): 24.3 µM
TGI (NCI-H226 lung): > 100 µM
GI50 (SR leukemia): 4.36 µM
TGI (SR leukemia): > 100 µM
GI50 (EKVX NSCLC): > 100 µM
TGI (EKVX NSCLC): > 100 µM
GI50 (MDA-MB-468 breast): 4.64 µM
TGI (MDA-MB-468 breast): 18.5 µM
GI50 (A498 renal): > 100 µM
TGI (A498 renal): > 100 µM
GI50 (MDA-MB-435): 21.6 µM
TGI (MDA-MB-435): > 100 µM
GI50 (SK-MEL-5 melanoma): 31.3 µM
TGI (SK-MEL-5 melanoma): > 100 µM
GI50 (HOP-92 NSCLC): 20.4 µM
TGI (HOP-92 NSCLC): > 100 µM
GI50 (KM12 colon): 4 µM
TGI (KM12 colon): > 100 µM
GI50 (NCI-H23 lung): 75.3 µM
TGI (NCI-H23 lung): > 100 µM
GI50 (OVCAR-8 ovarian): 16.8 µM
TGI (OVCAR-8 ovarian): 69.6 µM
GI50 (TK-10 renal): 26.5 µM
TGI (TK-10 renal): > 100 µM
GI50 (NCI-H460 lung): 6.63 µM
TGI (NCI-H460 lung): 24.8 µM
GI50 (SK-MEL-28 melanoma): 14.5 µM
TGI (SK-MEL-28 melanoma): 30.2 µM
GI50 (M14 melanoma): 12.3 µM
TGI (M14 melanoma): 27.4 µM
GI50 (MOLT-4 leukemia): 2.42 µM
TGI (MOLT-4 leukemia): 21.6 µM
GI50 (SF-539 CNS): 13.7 µM
TGI (SF-539 CNS): 41.2 µM
GI50 (MALME-3M melanoma): 10.4 µM
TGI (MALME-3M melanoma): 29.7 µM
GI50 (UO-31 renal): 12.8 µM
TGI (UO-31 renal): 64.8 µM
GI50 (SK-MEL-2 melanoma): 26.4 µM
TGI (SK-MEL-2 melanoma): > 100 µM
GI50 (MDA-MB-231 breast): 5.28 µM
TGI (MDA-MB-231 breast): 24.5 µM
GI50 (MCF7 breast): 4.11 µM
TGI (MCF7 breast): 22.7 µM
GI50 (SNB-19 CNS): 37.7 µM
TGI (SNB-19 CNS): > 100 µM
GI50 (HCT-116 colon): 32.2 µM
TGI (HCT-116 colon): > 100 µM
